Reference: publication PMC12298351, “Novel 3,19-(N-Phenyl-3-(4-fluorophenyl)-pyrazole) Acetal of Andrographolide Promotes Cell Cycle Arrest and Apoptosis in MDA-MB-231 Breast Cancer Cells” (Pharmaceuticals, 2025)

Tests used:
[1] = system: SK-MEL-28; conditions: SK-MEL-28, Melanoma; for CC50: read-out: 50% lethal concentration (LC50)
[2] = system: HL-60(TB); conditions: for GI50 / Total growth inhibition (TGI): Leukemia; for CC50: read-out: 50% lethal concentration (LC50), Leukemia
[3] = system: CAKI-1; conditions: CAKI-1, Renal; for CC50: read-out: 50% lethal concentration (LC50)
[4] = system: SK-MEL-5; conditions: SK-MEL-5, Melanoma; for CC50: read-out: 50% lethal concentration (LC50)
[5] = system: MOLT-4; conditions: MOLT-4, Leukemia; for CC50: read-out: 50% lethal concentration (LC50)
[6] = system: M14; format: cell-based; conditions: M14, Melanoma
[7] = system: MDA-MB-231; conditions: for GI50: MDA-MB-231, Breast; for Total growth inhibition (TGI) / CC50: MDA-MB-231/ATCC, Breast; for CC50: read-out: 50% lethal concentration (LC50)
[8] = system: T-47D; conditions: for GI50 / Total growth inhibition (TGI): Breast; for CC50: read-out: 50% lethal concentration (LC50), Breast
[9] = system: ACHN; conditions: for GI50 / Total growth inhibition (TGI): Renal; for CC50: read-out: 50% lethal concentration (LC50), Renal
[10] = system: SR; conditions: for GI50 / Total growth inhibition (TGI): Leukemia; for CC50: read-out: 50% lethal concentration (LC50), Leukemia
[11] = system: SF-268; conditions: SF-268, CNS; for CC50: read-out: 50% lethal concentration (LC50)
[12] = system: KM12; conditions: KM12, Colon
[13] = system: SK-MEL-2; conditions: SK-MEL-2, Melanoma
[14] = system: A549/ATCC; conditions: for Total growth inhibition (TGI): Non-Small Cell Lung; for GI50: Non-Small-Cell Lung; for CC50: read-out: 50% lethal concentration (LC50), Non-Small Cell Lung
[15] = system: HT29; conditions: HT29, Colon; for CC50: read-out: 50% lethal concentration (LC50)
[16] = system: HOP-62; conditions: for Total growth inhibition (TGI) / CC50: HOP-62, Non-Small Cell Lung; for GI50: HOP-62, Non-Small-Cell Lung; for CC50: read-out: 50% lethal concentration (LC50)
[17] = system: OVCAR-5; conditions: OVCAR-5, Ovarian; for CC50: read-out: 50% lethal concentration (LC50)
[18] = system: MDA-MB-468; conditions: MDA-MB-468, Breast; for CC50: read-out: 50% lethal concentration (LC50)
[19] = system: DU-145; conditions: DU-145, Prostate
[20] = DPPH radical scavenging assay; conditions: 25 µM test compound, 0.1 mM DPPH, acetonitrile, 30 min
In short: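 Compounds at 25 µM in acetonitrile mixed 1:2 with 0.1 mM DPPH in acetonitrile, kept 30 min in the dark at room temperature. Absorbance read at 517 nm; % scavenging = (Ac − As)/Ac × 100, Ac being DPPH blank. Ascorbic acid positive control.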

[21] = system: IGROV1; conditions: IGROV1, Ovarian; for CC50: read-out: 50% lethal concentration (LC50)
[22] = system: NCI-H23; conditions: for Total growth inhibition (TGI) / CC50: NCI-H23, Non-Small Cell Lung; for GI50: NCI-H23, Non-Small-Cell Lung; for CC50: read-out: 50% lethal concentration (LC50)
[23] = system: SW-620; conditions: SW-620, Colon; for CC50: read-out: 50% lethal concentration (LC50)
[24] = system: LOX IMVI; conditions: for GI50 / Total growth inhibition (TGI): Melanoma; for CC50: read-out: 50% lethal concentration (LC50), Melanoma
[25] = system: MALME-3M; conditions: Melanoma
[26] = system: BT-549; format: cell-based; conditions: BT-549, Breast
[27] = system: HCC-2998; conditions: HCC-2998, Colon
[28] = system: MCF7; conditions: MCF7, Breast; for CC50: read-out: 50% lethal concentration (LC50)

C=C1CCC2C3(C)COC(c4cn(-c5ccccc5)nc4-c4ccc(F)cc4)OC3CCC2(C)C1CC=C1C(=O)OCC1O (centres unmarked) [1f, 3,19-(N-Phenyl-3-(4-fluorophenyl)-pyrazole) Acetal of Andrographolide]
GI50 [1]: 1.66 µM | Total growth inhibition (TGI) [1]: 3.12 µM | CC50 [1]: 5.86 µM | GI50 [2]: 0.64 µM | Total growth inhibition (TGI) [2]: 7.12 µM | CC50 [2]: > 100 µM | GI50 [3]: 1.58 µM | Total growth inhibition (TGI) [3]: 3.17 µM | CC50 [3]: 6.34 µM | GI50 [4]: 1.62 µM | Total growth inhibition (TGI) [4]: 2.98 µM | CC50 [4]: 5.47 µM | GI50 [5]: 0.6 µM | CC50 [5]: > 100 µM | GI50 [6]: 1.5 µM | Total growth inhibition (TGI) [6]: 3.23 µM | GI50 [7]: 1.68 µM | Total growth inhibition (TGI) [7]: 3.28 µM | CC50 [7]: 6.41 µM | GI50 [8]: 1.19 µM | Total growth inhibition (TGI) [8]: 2.97 µM | CC50 [8]: 7.44 µM | GI50 [9]: 1.66 µM | Total growth inhibition (TGI) [9]: 3.11 µM | CC50 [9]: 5.82 µM | GI50 [10]: 1.7 µM | Total growth inhibition (TGI) [10]: 7.33 µM | CC50 [10]: > 100 µM | GI50 [11]: 2.36 µM | Total growth inhibition (TGI) [11]: 5.63 µM | CC50 [11]: 25.7 µM | GI50 [12]: 1.84 µM | Total growth inhibition (TGI) [12]: 3.59 µM | GI50 [13]: 1.69 µM | Total growth inhibition (TGI) [13]: 3.1 µM | Total growth inhibition (TGI) [14]: 5.92 µM | GI50 [14]: 2.14 µM | CC50 [14]: 51.5 µM | GI50 [15]: 2.38 µM | Total growth inhibition (TGI) [15]: 7.63 µM | CC50 [15]: 93.9 µM | Total growth inhibition (TGI) [16]: 3.36 µM | GI50 [16]: 1.62 µM | CC50 [16]: 6.95 µM | GI50 [17]: 1.74 µM | Total growth inhibition (TGI) [17]: 3.88 µM | CC50 [17]: 8.66 µM | GI50 [18]: 1.53 µM | Total growth inhibition (TGI) [18]: 2.96 µM | CC50 [18]: 5.71 µM | GI50 [19]: 1.82 µM | Total growth inhibition (TGI) [19]: 3.44 µM | CC50 ([19]; read-out: 50% lethal concentration (LC50)): 6.52 µM | % DPPH radical scavenging activity [20]: 58.15% | GI50 [21]: 1.84 µM | Total growth inhibition (TGI) [21]: 4.75 µM | CC50 [21]: > 100 µM | Total growth inhibition (TGI) [22]: 3.32 µM | GI50 [22]: 1.7 µM | CC50 [22]: 6.46 µM | GI50 [23]: 4.49 µM | Total growth inhibition (TGI) [23]: > 100 µM | CC50 [23]: > 100 µM | GI50 [24]: 1.32 µM | Total growth inhibition (TGI) [24]: 2.59 µM | CC50 [24]: 5.09 µM | GI50 [25]: 1.58 µM | Total growth inhibition (TGI) [25]: 3.02 µM | GI50 [26]: 1.31 µM | Total growth inhibition (TGI) [26]: 3.18 µM | GI50 [27]: 1.76 µM | Total growth inhibition (TGI) [27]: 3.21 µM | GI50 [28]: 1.43 µM | Total growth inhibition (TGI) [28]: 4.13 µM | CC50 [28]: 63.1 µM

C=C1CCC2C3(C)COC(c4cn(-c5ccccc5)nc4-c4ccc(Cl)cc4)OC3CCC2(C)C1CC=C1C(=O)OCC1O (centres unmarked) [1g]
GI50 [1]: 1.78 µM | Total growth inhibition (TGI) [1]: 3.36 µM | CC50 [1]: 6.35 µM | GI50 [2]: 2.67 µM | Total growth inhibition (TGI) [2]: > 100 µM | CC50 [2]: > 100 µM | GI50 [3]: 1.63 µM | Total growth inhibition (TGI) [3]: 3.28 µM | CC50 [3]: 6.59 µM | GI50 [4]: 1.7 µM | Total growth inhibition (TGI) [4]: 3.11 µM | CC50 [4]: 5.69 µM | GI50 [5]: 0.88 µM | Total growth inhibition (TGI) [5]: > 100 µM | CC50 [5]: > 100 µM | GI50 [6]: 1.84 µM | Total growth inhibition (TGI) [6]: 3.69 µM | GI50 [7]: 1.68 µM | Total growth inhibition (TGI) [7]: 4.6 µM | CC50 [7]: 6.25 µM | GI50 [8]: 1.31 µM | Total growth inhibition (TGI) [8]: 3.6 µM | CC50 [8]: > 100 µM | GI50 [9]: 1.89 µM | Total growth inhibition (TGI) [9]: 3.95 µM | CC50 [9]: 8.23 µM | GI50 [10]: 2.53 µM | Total growth inhibition (TGI) [10]: > 100 µM | CC50 [10]: > 100 µM | GI50 [11]: 2.39 µM | Total growth inhibition (TGI) [11]: 6.32 µM | CC50 [11]: > 100 µM | GI50 [12]: 2.29 µM | Total growth inhibition (TGI) [12]: 4.92 µM | GI50 [13]: 1.77 µM | Total growth inhibition (TGI) [13]: 3.25 µM | Total growth inhibition (TGI) [14]: 36.3 µM | GI50 [14]: 3.57 µM | CC50 [14]: > 100 µM | GI50 [15]: 1.69 µM | Total growth inhibition (TGI) [15]: 4.64 µM | CC50 [15]: > 100 µM | Total growth inhibition (TGI) [16]: 4.95 µM | GI50 [16]: 2.36 µM | CC50 [16]: > 100 µM | GI50 [17]: 1.98 µM | Total growth inhibition (TGI) [17]: 5.38 µM | CC50 [17]: > 100 µM | GI50 [18]: 2 µM | Total growth inhibition (TGI) [18]: 4.49 µM | CC50 [18]: 6.36 µM | GI50 [19]: 2.05 µM | Total growth inhibition (TGI) [19]: 4.1 µM | % DPPH radical scavenging activity [20]: 57.45% | GI50 [21]: 4.29 µM | Total growth inhibition (TGI) [21]: 46.1 µM | CC50 [21]: > 100 µM | Total growth inhibition (TGI) [22]: 3.59 µM | GI50 [22]: 1.73 µM | CC50 [22]: 7.45 µM | Total growth inhibition (TGI) [23]: > 100 µM | CC50 [23]: > 100 µM | GI50 [24]: 1.58 µM | Total growth inhibition (TGI) [24]: 2.94 µM | CC50 [24]: 5.48 µM | GI50 [25]: 1.82 µM | Total growth inhibition (TGI) [25]: 3.41 µM | GI50 [26]: 1.49 µM | Total growth inhibition (TGI) [26]: 3.37 µM | GI50 [27]: 1.88 µM | Total growth inhibition (TGI) [27]: 3.39 µM | GI50 [28]: 1.51 µM | Total growth inhibition (TGI) [28]: > 100 µM | CC50 [28]: 42.8 µM
